Assay results reported in ChEMBL document CHEMBL6087462, “Cuminaldehyde Potentiates Antiproteolytic Peptide Efficacy via Parallel Pathways of Enhanced Inner Membrane-Damaging Activity and Inhibition of Bacterial Energy Metabolism” (J Med Chem, 2025).
The source made the active and inactive calls.

Experiments:
Escherichia coli [1] = assay: Drug resistance, ratio of MIC for Escherichia coli ATCC 25922 after 30 passages to MIC for Escherichia coli ATCC 25922 […] after initial exposure; format: functional
Mus musculus [2] = species on record: Mus musculus; assay: Anti-inflammatory activity in ETEC-induced enteritis mouse model assessed as decrease in IL-6 level in colon by ELISA analysis; format: functional, organism-based
Escherichia coli [3] = assay: Upregulation of intracellular ATP level in Escherichia coli ATCC 25922 at 0.5 to 1 times MIC; format: functional, organism-based
Escherichia coli [4] = assay: Antibacterial activity against Escherichia coli infected in K88-induced enteritis mouse model assessed as reduction in number of colonies in ileum at 50 mg/kg, ip administered every 12 hrs for 2 days; format: functional, organism-based; conditions: time 2.0 day
Escherichia coli [5] = assay: Antimicrobial activity against Escherichia coli ATCC 25922 assessed as reduction in microbial growth in presence of SIF; format: functional, organism-based
Klebsiella pneumoniae [6] = assay: Bactericidal activity against Klebsiella pneumoniae at 0.5 times MIC incubated for 24 hrs by time kill assay; format: functional, organism-based
Acinetobacter baumannii [7] = assay: Synergistic bactericidal activity against Acinetobacter baumannii at 0.5 times MIC incubated for 24 hrs in presence of cuminaldehyde by time kill assay; format: functional, organism-based
Mus musculus [8] = species on record: Mus musculus; assay: Anti-inflammatory activity in ETEC-induced enteritis mouse model assessed as decrease in IL-1beta level in colon by ELISA analysis; format: functional, organism-based
Enterococcus faecalis [9] = assay: Bactericidal activity against Enterococcus faecalis ATCC […] at 0.5 times MIC incubated for 24 hrs by time kill assay; format: functional, organism-based
Salmonella typhimurium [10] = assay: Synergistic bactericidal activity against Salmonella typhimurium ATCC 14028 at 0.5 times MIC incubated for 24 hrs in presence of cuminaldehyde by time kill assay; format: functional, organism-based; conditions: Salmonella enterica subsp. enterica serovar Typhimurium
Mus musculus [11] = species on record: Mus musculus; assay: Anti-inflammatory activity in ETEC-induced enteritis mouse model assessed as structural changes in intestine by H and E staining based analysis; format: functional, organism-based
Cell membrane [12] = assay: Induction of outer membrane permeabilization in Escherichia coli ATCC 25922 by NPN-dye based assay; format: subcellular
Salmonella typhimurium [13] = assay: Bactericidal activity against Salmonella typhimurium ATCC 14028 at 0.5 times MIC incubated for 24 hrs by time kill assay; format: functional, organism-based; conditions: Salmonella enterica subsp. enterica serovar Typhimurium
Cell membrane [14] = assay: Induction of cytoplasmic membrane depolarization in Escherichia coli ATCC 25922 assessed as increase in fluorescence intensity in presence of cuminaldehyde by DiSC3(5) dye-based fluorescence assay
Cell membrane [15] = assay: Induction of outer membrane permeabilization in Escherichia coli ATCC 25922 in presence of cuminaldehyde by NPN-dye based assay; format: subcellular
Escherichia coli [16] = assay: Antibacterial activity against Escherichia coli infected in K88-induced enteritis mouse model assessed as reduction in number of colonies in colon at 50 mg/kg, ip administered every 12 hrs for 2 days; format: functional, organism-based; conditions: time 2.0 day
Pseudomonas aeruginosa [17] = assay: Synergistic bactericidal activity against Pseudomonas aeruginosa 27853 at 0.5 times MIC incubated for 24 hrs in presence of cuminaldehyde by time kill assay; format: functional, organism-based
Escherichia coli [18] = assay: Upregulation of intracellular ATP level in Escherichia coli ATCC 25922 at 0.5 to 1 times MIC in presence of cuminaldehyde; format: functional, organism-based
Escherichia coli [19] = assay: Antimicrobial activity against Escherichia coli ATCC 25922 assessed as reduction in microbial growth in presence of Ca+; format: functional, organism-based
Escherichia coli [20] = assay: Antimicrobial activity against Escherichia coli ATCC 25922 assessed as reduction in microbial growth in presence of LPS; format: functional, organism-based
Escherichia coli [21] = assay: Antibacterial activity against Escherichia coli infected in K88-induced enteritis mouse model assessed as reduction in diarrhea score at 50 mg/kg, ip administered every 12 hrs for 2 days; format: functional, organism-based; conditions: time 2.0 day
[22] = test system: Staphylococcus epidermidis; assay: Synergistic bactericidal activity Staphylococcus epidermidis ATCC 12228 at 0.5 times MIC incubated for 24 hrs in presence of cuminaldehyde by time kill assay; format: functional, organism-based
Escherichia coli [23] = assay: Antimicrobial activity against Escherichia coli ATCC 25922 assessed as reduction in microbial growth in presence of SGF; format: functional, organism-based
[24] = test system: Staphylococcus epidermidis; assay: Bactericidal activity against Staphylococcus epidermidis ATCC 12228 at 0.5 times MIC incubated for 24 hrs by time kill assay; format: functional, organism-based
Escherichia coli [25] = assay: Antimicrobial activity against Escherichia coli ATCC 25922 assessed as reduction in microbial growth in presence of Na+; format: functional, organism-based
Mus musculus [26] = species on record: Mus musculus; assay: Anti-inflammatory activity in ETEC-induced enteritis mouse model assessed as decrease in TNF-alpha level in colon by ELISA analysis; format: functional, organism-based
Escherichia coli [27] = assay: Antimicrobial activity against Escherichia coli ATCC 25922 assessed as reduction in microbial growth in presence of Mg+; format: functional, organism-based
Escherichia coli [28] = assay: Induction of ROS accumulation in Escherichia coli ATCC 25922 at 0.5 to 1 time MIC in presence of cuminaldehyde; format: functional, organism-based
Escherichia coli [29] = assay: Antibacterial activity against Escherichia coli infected in K88-induced enteritis mouse model assessed as reduction in number of colonies in feces at 50 mg/kg, ip administered every 12 hrs for 2 days; format: functional, organism-based; conditions: time 2.0 day
Enterococcus faecalis [30] = assay: Synergistic bactericidal activity Enterococcus faecalis ATCC 29212 at 0.5 times MIC incubated for 24 hrs in presence of cuminaldehyde by time kill assay; format: functional, organism-based
Streptococcus agalactiae [31] = assay: Synergistic bactericidal activity Streptococcus agalactiae CICC 10465 at 0.5 times MIC incubated for 24 hrs in presence of cuminaldehyde by time kill assay; format: functional, organism-based
Staphylococcus aureus [32] = assay: Synergistic bactericidal activity Staphylococcus aureus ATCC 25923 at 0.5 times MIC incubated for 24 hrs in presence of cuminaldehyde by time kill assay; format: functional, organism-based
Acinetobacter baumannii [33] = assay: Bactericidal activity against Acinetobacter baumannii at 0.5 times MIC incubated for 24 hrs by time kill assay; format: functional, organism-based
Staphylococcus aureus [34] = assay: Bactericidal activity against Staphylococcus aureus ATCC 25923 at 0.5 times MIC incubated for 24 hrs by time kill assay; format: functional, organism-based
Streptococcus agalactiae [35] = assay: Bactericidal activity against Streptococcus agalactiae CICC 10465 at 0.5 times MIC incubated for 24 hrs by time kill assay; format: functional, organism-based
Escherichia coli [36] = assay: Induction of ROS accumulation in Escherichia coli ATCC 25922 at 0.5 to 1 time MIC; format: functional, organism-based
Klebsiella pneumoniae [37] = assay: Synergistic bactericidal activity against Klebsiella pneumoniae at 0.5 times MIC incubated for 24 hrs in presence of cuminaldehyde by time kill assay; format: functional, organism-based
Pseudomonas aeruginosa [38] = assay: Bactericidal activity against Pseudomonas aeruginosa 27853 at 0.5 times MIC incubated for 24 hrs by time kill assay; format: functional, organism-based
Escherichia coli [39] = assay: Bactericidal activity against Escherichia coli K88 at 0.5 times MIC incubated for 24 hrs by time kill assay; format: functional, organism-based
Escherichia coli [40] = assay: Synergistic bactericidal activity against Escherichia coli K88 at 0.5 times MIC incubated for 24 hrs in presence of cuminaldehyde by time kill assay; format: functional, organism-based
Cell membrane [41] = assay: Induction of cytoplasmic membrane depolarization in Escherichia coli ATCC 25922 by DiSC3(5) dye-based fluorescence assay; format: subcellular

O=C(O)c1cn(C2CC2)c2cc(N3CCNCC3)c(F)cc2c1=O [CIPROFLOXACIN]
2: Ratio (Escherichia coli [1])

CC[C@H](C)[C@H](NC(=O)[C@@H](NC(=O)[C@@H](CCCNC(=N)N)NC(=O)[C@H](C)NC(=O)[C@H](C)NC(=O)C(N)Cc1cccc2ccccc12)[C@@H](C)CC)C(=O)N[C@@H](CC(C)C)C(=O)N[C@H](CCCNC(=N)N)C(=O)N[C@@H](Cc1c[nH]c2ccccc12)C(=O)N[C@H](CCCNC(=N)N)C(=O)N[C@@H](Cc1ccccc1)C(=O)N[C@@H](CCCNC(=N)N)C(=O)O (stereo partly specified)
active: Activity (Mus musculus [2]) | Activity (Escherichia coli [3]) | Activity (Escherichia coli [4]) | Activity (Escherichia coli [5]) | Activity (Klebsiella pneumoniae [6]) | Activity (Acinetobacter baumannii [7]) | Activity (Mus musculus [8]) | Activity (Enterococcus faecalis [9]) | Activity (Salmonella typhimurium [10]) | Activity (Mus musculus [11]) | Activity (Salmonella typhimurium [13]) | Activity (Cell membrane [14]) | Activity (Cell membrane [15]) | Activity (Escherichia coli [16]) | Activity (Pseudomonas aeruginosa [17]) | Activity (Escherichia coli [18]) | Activity (Escherichia coli [19]) | Activity (Escherichia coli [20]) | Activity (Escherichia coli [21]) | Activity [22] | Activity (Escherichia coli [23]) | Activity [24] | Activity (Escherichia coli [25]) | Activity (Mus musculus [26]) | Activity (Escherichia coli [27]) | Activity (Escherichia coli [28]) | Activity (Escherichia coli [29]) | Activity (Enterococcus faecalis [30]) | Activity (Streptococcus agalactiae [31]) | Activity (Staphylococcus aureus [32]) | Activity (Acinetobacter baumannii [33]) | Activity (Staphylococcus aureus [34]) | Activity (Streptococcus agalactiae [35]) | Activity (Escherichia coli [36]) | Activity (Klebsiella pneumoniae [37]) | Activity (Pseudomonas aeruginosa [38]) | Activity (Escherichia coli [39]) | Activity (Escherichia coli [40]) | Activity (Cell membrane [41]) Dose-dependent-effect
inactive: Activity (Cell membrane [12])
